Assay results: paper PMC7093416, “Selective USP7 inhibition elicits cancer cell killing through a p53-dependent mechanism” (Scientific Reports, 2020)
Where two headings read alike, the source gives them in different places. Blank lines part the entries; values can stand above or below the compound they belong to.

Columns and labels:
[1] = target: T1, full-length USP7 (Homo sapiens, UniProt Q93009); test: Ub-AMC enzymatic assay, full-length USP7, 6 h pre-incubation; format: biochemical; conditions: for IC50: Ub-AMC, read-out: IC50
T1 construct: The constructs encoding USP7 full length (amino acids 1–1102) and catalytic domain (208–560); inferred from Ni-NTA purification; made in house; host or cells: E. coli BL21 (DE3)
T1 sequence (Q93009 whole entry, the tested form may be a part): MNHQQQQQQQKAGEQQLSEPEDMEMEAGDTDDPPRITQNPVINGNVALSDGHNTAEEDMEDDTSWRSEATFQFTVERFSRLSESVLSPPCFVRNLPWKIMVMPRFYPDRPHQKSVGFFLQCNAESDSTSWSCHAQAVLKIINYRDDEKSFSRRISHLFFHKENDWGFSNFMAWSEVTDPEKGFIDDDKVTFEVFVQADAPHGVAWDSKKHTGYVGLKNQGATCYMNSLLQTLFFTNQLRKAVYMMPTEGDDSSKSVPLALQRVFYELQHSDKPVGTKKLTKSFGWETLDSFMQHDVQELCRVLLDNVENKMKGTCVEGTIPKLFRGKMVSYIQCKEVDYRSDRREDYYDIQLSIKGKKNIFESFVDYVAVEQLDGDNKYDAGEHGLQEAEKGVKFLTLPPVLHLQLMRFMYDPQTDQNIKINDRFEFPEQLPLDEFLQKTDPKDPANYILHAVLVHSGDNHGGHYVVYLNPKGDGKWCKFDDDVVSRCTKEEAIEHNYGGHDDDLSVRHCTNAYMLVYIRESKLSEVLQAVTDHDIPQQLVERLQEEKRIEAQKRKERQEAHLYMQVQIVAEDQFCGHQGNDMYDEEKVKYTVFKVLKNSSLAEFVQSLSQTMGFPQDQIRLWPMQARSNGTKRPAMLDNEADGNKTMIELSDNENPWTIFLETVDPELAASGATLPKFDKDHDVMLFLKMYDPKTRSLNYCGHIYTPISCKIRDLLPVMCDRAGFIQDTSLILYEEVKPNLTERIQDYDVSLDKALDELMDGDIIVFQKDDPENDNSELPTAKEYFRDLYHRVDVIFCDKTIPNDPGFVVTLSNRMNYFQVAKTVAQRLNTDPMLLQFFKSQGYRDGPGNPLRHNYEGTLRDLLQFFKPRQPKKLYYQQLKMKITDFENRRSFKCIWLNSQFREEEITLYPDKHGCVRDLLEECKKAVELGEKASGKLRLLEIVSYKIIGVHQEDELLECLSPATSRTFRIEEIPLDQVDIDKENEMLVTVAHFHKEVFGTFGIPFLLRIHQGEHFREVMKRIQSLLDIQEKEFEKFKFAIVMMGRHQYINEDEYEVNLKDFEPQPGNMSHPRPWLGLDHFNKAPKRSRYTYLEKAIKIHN
Experimental: Full length USP7 was tested for its activity in Ubiquitin-AMC assay in presence or absence of inhibitors. USP7 (5 nM) was pre-incubated for 6 hours at room temperature with different concentrations of inhibitors or DMSO as a control in 50 mM HEPES pH 7.5, 0.5 mM EDTA, 11 uM ovalbumin, and 5 mM DTT. Ubiquitin-AMC (Boston Biochem) was then added to a final concentration of 500 nM. The initial rate of the reaction was measured by collecting fluorescence data at one minute intervals over 30-minute period using a Clariostar fluorescence plate reader at excitation and emission wavelength of 345 and 445 nm respectively. The calculated initial rate values were plotted against inhibitor concentrations to determine IC50s. All the experimental data were plotted using Prism GraphPad. All assays for each compound were performed at least twice for each compound.

[2] = target: T2, USP7 catalytic domain (Homo sapiens, UniProt Q93009); test: Intact MS / CE-MS labeling of purified USP7 catalytic domain; format: binding; conditions: 2.5-fold molar excess compound
T2 construct: catalytic domain (208–560) used were cloned as described; inferred from Ni-NTA purification; made in house; host or cells: E. coli BL21 (DE3)
T2 sequence (Q93009 208-560): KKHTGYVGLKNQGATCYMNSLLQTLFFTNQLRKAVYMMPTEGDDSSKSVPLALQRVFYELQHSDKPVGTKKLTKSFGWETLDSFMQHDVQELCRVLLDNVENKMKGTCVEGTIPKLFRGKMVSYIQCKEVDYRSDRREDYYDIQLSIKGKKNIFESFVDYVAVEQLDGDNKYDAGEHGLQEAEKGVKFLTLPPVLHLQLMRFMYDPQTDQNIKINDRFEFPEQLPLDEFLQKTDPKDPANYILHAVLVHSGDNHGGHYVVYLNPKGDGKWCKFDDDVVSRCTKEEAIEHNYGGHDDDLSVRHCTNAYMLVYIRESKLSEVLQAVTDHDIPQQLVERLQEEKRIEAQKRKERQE
Experimental: Purified USP7 catalytic domain was diluted to 20 μM in 10 μL labeling buffer (20 mM HEPES pH 7.5, 150 mM NaCl, 1 mM TCEP) and incubated for the indicated times with 50 μM (2.5×) compound. After incubation, samples were flash frozen in liquid nitrogen and stored at −80 °C until analysis.
Intact mass analysis was performed by injecting 5 µg USP7 catalytic domain onto a self-packed reversed phase column (1/32” O.D. × 500 um I.D., 5 cm of POROS 10R2 resin). After desalting, protein was eluted with an HPLC gradient (0–100% B in 4 minutes, A = 0.2 M acetic acid in water, B = 0.2 M acetic acid in acetonitrile, flow rate ~30 µL/min) into an LTQ ion trap mass spectrometer (ThermoFisher Scientific, San Jose, CA). Mass spectra were processed using MagTran1.03b2[52].
Peptides were desalted using SP3[53], dried by vacuum centrifugation, and reconstituted in 1% formic acid/50% acetonitrile with 100 mM ammonium acetate. Peptides were then analyzed by CE-MS using a ZipChip CE system and autosampler (908 Devices, Boston, MA) interfaced to a QExactive HF mass spectrometer (ThermoFisher Scientific, San Jose, CA). Peptide solution was loaded for 30 seconds, and the mass spectrometer was operated in data dependent mode and subjected the 5 most abundant ions in each MS scan (60k resolution, 3E6 target, lock mass enabled) to MS/MS (15k resolution, 1E5 target, 100 ms max inject time). […]

[3] = system: Ewing Sarcoma, AML, multiple myeloma and rhabdoid cell lines; test: Cell viability (CellTiter-Glo) in individual cell line panels; format: cell-based; conditions: Ewing Sarcoma lines and TC32 cells, 3 days
Experimental: (§1) Cells were plated in 384-well culture-treated plates and allowed to settle overnight. After drug treament and appropriate incubation time, cell viability was assessed using the CellTiter-Glo Luminescent Cell Viability Assay (Promega). Luminescence was read on a Fluostar Omega Reader (BMG Labtech).

[4] = system: TC32 cells; test: Cell viability (CellTiter-Glo) in TC32 cells expressing sgRNA (TP53-KO vs control); format: cell-based; conditions: 3 days, Cell Titer Glo
Experimental: as §1

[5] = system: MCF7 cells; test: 3' DGE RNA-seq transcriptional profiling; format: cell-based; design: log2FoldChange: concentration or dose not given beside the values; conditions: gene ABCA12; concentration 1
Experimental: The DGE RNA sequencing was performed following the published method[39],[40] with modifications as described below. MCF7 cells were seeded in a 384 well plate at 2500 cells per well, allowed to adhere for 24 hours, then treated with two doses in triplicate of XL177A, XL177B, Nutlin-3, or DMSO. After 24 hours of treatment, an EL405x plate washer (BioTek) was used to aspirate the media and wash once with PBS. Cells were lysed in the plate with 10 µl of lysis buffer (1x Qiagen TCL, 1% BME) for 5 minutes at room temperature, then stored at −80 °C. Automated liquid handling was performed with assistance from ICCB-Longwood Screening Facility. A BRAVO Automated Liquid Handling Platform (Agilent) was used for RNA extraction as follows. The lysate was mixed and 10 µl was transferred to a 384 well PCR plate. 28 µl of homemade SPRI[66] (solid-phase reversible immobilization) beads were added to the lysate and mixed. After 5 minutes, the beads were pulled down by placing the plate on a magnet, then the beads were washed twice with 80% ethanol. Beads were air dried for 1 minute, then 20 µl of nuclease free water was added, the plate was removed from the magnet, and the beads were resuspended. After 5 minutes, the plate was placed back on the magnet to pull down the beads. The supernatant was transferred to a fresh 384 well plate. RNA quantity was checked with the Qubit Fluorometer and RNA quality was assessed using the Agilent BioAnalyzer RNA 6000 Pico Kit. The BRAVO platform was again used to transfer 5 µl of supernatant was transferred to a fresh 384 well plate with RT master mix and 1 µl of barcoded E3V6NEXT adapters for reverse transcription and template switching. The plate was incubated for 90 minutes at 42 °C, then cDNA was pooled, purified with the QIAquick PCR purification kit. The full-length cDNA was treated with Exonuclease I to remove excess primers for 30 minutes at 37 °C then amplified x5 cycles with Advantage 2 PCR Enzyme System using the SINGV6 primer. The amplified full-length cDNA was purified with Agencourt AMPure XP magnetic beads and quantitated by Qubit Fluorometer. The sequencing library was prepared using the Nextera DNA kit following the manufacturer’s instructions. Briefly, 55 ng of cDNA was tagmented for 5 minutes at 55 °C then purified using Zymo DNA Clean & Concetrator-5 column, then amplified x7 cycles and purified using a 0.9x ratio of AMPure XP magnetic beads. The library size distribution was assessed by Agilent BioAnalyzer HS DNA Kit before it was quantified by qPCR and sequenced on an Illumina NextSeq at the Biopolymers Facility at Harvard Medical School.
The bcbio-nextgen single cell RNA-seq analysis pipeline (https://bcbio-nextgen.readthedocs.io/en/latest/) was used to deconvolve the well barcodes and convert reads to counts. Any detected barcode that differed by more than one base from an expected barcode was removed. Unique reads were identified using unique molecular identifiers (UMIs) in order to remove PCR duplicates. The reads remaining after these filters were aligned to the transcriptome (GRCh38) using RapMap[67]. The R package DESeq. 2 version 1.20.0 (R version 3.5.1) was used for differential expression analysis.

[6] = target: T1, full-length USP7; test: Ub-AMC time course assay for kinact / KI; format: biochemical
Experimental: To calculate the ki and kianct values for XL-9678-041, the procedure above was used, but different concentrations of inhibitor were incubated with USP7 for different time points (5 min - 3 hours) before adding Ubiquitin-AMC. To determine kobs, the time course curves were fit to the equation y = ymax(1 − exp(−kobs⋅x)). The kobs values were then plotted against the inhibitor concentrations and fit to the equation y = kinact/(1 + (ki/x)) to obtain the values for ki and kianct.
Supplementary Figure Captions
Figure S1: Full-length recombinant purified USP7 was pre-incubated with XL041 at the indicated concentrations for the indicated times, then Ub-AMC was added and fluorescence was monitored. Graphpad Prism software was used to calculate initial reaction velocity and derive KI / kinact values (bottom panel).
Figure S2: Mass spectra (left) and zero-charge mass spectra (right) of WT USP7 catalytic domain incubated for 4 hours with DMSO (top) or 2.5-fold molar excess XL058 (bottom). […]
Figure S5: MCF7 cells were transfected with the indicated pcDNA constructs for 48 hours, then treated with XL177A at the indicated concentration for 3 hours. Cells were lysed, and FLAG-USP7 target engagement was assessed with the DUB ABP HA-Ub-VS. Densitometry was performed using ImageStudio software and analyzed using Graphpad Prism. […]

- IC50 [1]: 0.904 µM
- labeling of USP7 catalytic domain by MS [2]: unable to label
Structure (SMILES): CN1CCN(CCC(=O)Nc2ccc3c(=O)n(CC4(O)CCN(C(=O)C(CCCNC(=O)c5ccc6cc7c(nc6c5)CCCC7)Cc5ccccc5)CC4)cnc3c2)CC1 (centres unmarked) [XL058]

- IC50 [1]: 0.0059 µM
Structure (SMILES): CN1CCN(CCC(=O)Nc2ccc3c(=O)n(CC4(O)CCN(C(=O)C(CCCNC(=O)c5ccc6c(Cl)c7c(nc6c5)CCCC7)Cc5ccccc5)CC4)cnc3c2)CC1 (centres unmarked) [XL112]

- IC50 ([1]; Table S1): 0.152 µM
- mode of inhibition [6]: irreversible mode of inhibition
- kinact ([6]; pre-incubation 5 min - 3 hours): 0.00373 s⁻¹
Structure (SMILES): CN1CCN(CCC(=O)Nc2ccc3c(=O)n(CC4(O)CCN(C(=O)CCCCNC(=O)c5ccc6c(Cl)c7c(nc6c5)CCCC7)CC4)cnc3c2)CC1 [XL041]

More lines, now with the values behind:

Structure (SMILES): CCc1c(-c2ccc3[nH]ncc3c2)cnc(N)c1-c1ccc(O)cc1 [GNE-6640]
- selectivity for TP53-WT versus TP53-mutant or TP53-KO cells [3]: showed little selectivity
- selectivity for TP53-WT versus TP53-mutant or TP53-KO cells ([3]; listed as SB1_F_057): no differential response
- differential response in TC32 TP53 knock out cells [4]: no differential

Structure (SMILES): COc1ccc(C2=N[C@@H](c3ccc(Cl)cc3)[C@@H](c3ccc(Cl)cc3)N2C(=O)N2CCNC(=O)C2)c(OC(C)C)c1 [nutlin3a]
- log2FoldChange [5]: 0.9473

Structure (SMILES): CN1CCN(CCC(=O)Nc2ccc3c(=O)n(CC4CCN(C(=O)C(CCCNC(=O)c5ccc6c(Cl)c7c(nc6c5)CCCC7)Cc5ccccc5)CC4)cnc3c2)CC1 (centres unmarked) [XL024]
- less potent than XL058 [1]: ~ 10 fold
- less potent than XL112 [1]: ~ 1,000 fold
- IC50 ([1]; Table S1): 8.13 µM
- IC50 [1]: 8 µM
